Consider one compound from ChEMBL document CHEMBL3739305, “A synthetic chalcone derivative, 2-hydroxy-3',5,5'-trimethoxychalcone (DK-139), suppresses the TNFα-induced invasive capability of MDA-MB-231 human breast cancer cells by inhibiting NF-κB-mediated GROα expression” (Bioorg Med Chem Lett, 2016).

Activity calls are given as the source filed them. No cut-off for these calls is given here.

The target in experiment [1] is T1, Inhibitor of NF-kappa-B kinase (IKK) (Homo sapiens) (UniProt O14920+O15111+Q9Y6K9). As to the kind of experiment: Inhibition of IKK in human MDA-MB-231 cells assessed as decrease in TNF-alpha-induced GROalpha mRNA level pretreated with compound for 30 mins followed by addition of TNF-alpha measured after 12 hrs by RT-PCR analysis. The format is cell-based.
Experiment [2] has as its target T1, Inhibitor of NF-kappa-B kinase (IKK) (Homo sapiens). As to the kind of experiment: Inhibition of IKK in human MDA-MB-231 cells assessed as decrease in TNF-alpha-induced GROalpha mRNA level pretreated with compound for 30 mins followed by addition of TNF-alpha measured after 12 hrs by QR-PCR analysis. The class given is cell-based.
Experiment [3] has the same target. The experiment is described as follows: Inhibition of IKK in human MDA-MB-231 cells assessed as decrease in TNF-alpha-induced GROalpha mRNA level at 10 uM pretreated for 30 mins followed by addition of TNF-alpha measured after 12 hrs by QR-PCR analysis. The class given is cell-based.
Experiment [4] shares this target. The experiment is described as follows: Inhibition of IKK in human MDA-MB-231 cells assessed as inhibition of TNF-alpha-induced GROalpha promoter activation pretreated with compound for 30 mins followed by addition of TNF-alpha for 8 hrs by luciferase reporter gene assay. The format is cell-based. A general note: In a reporter assay the amount or activity of a reporter protein is the signal.

The target of experiment [5] is T2, Inhibitor of nuclear factor kappa-B kinase subunit alpha (Homo sapiens) (UniProt O15111).
T2 sequence (whole entry): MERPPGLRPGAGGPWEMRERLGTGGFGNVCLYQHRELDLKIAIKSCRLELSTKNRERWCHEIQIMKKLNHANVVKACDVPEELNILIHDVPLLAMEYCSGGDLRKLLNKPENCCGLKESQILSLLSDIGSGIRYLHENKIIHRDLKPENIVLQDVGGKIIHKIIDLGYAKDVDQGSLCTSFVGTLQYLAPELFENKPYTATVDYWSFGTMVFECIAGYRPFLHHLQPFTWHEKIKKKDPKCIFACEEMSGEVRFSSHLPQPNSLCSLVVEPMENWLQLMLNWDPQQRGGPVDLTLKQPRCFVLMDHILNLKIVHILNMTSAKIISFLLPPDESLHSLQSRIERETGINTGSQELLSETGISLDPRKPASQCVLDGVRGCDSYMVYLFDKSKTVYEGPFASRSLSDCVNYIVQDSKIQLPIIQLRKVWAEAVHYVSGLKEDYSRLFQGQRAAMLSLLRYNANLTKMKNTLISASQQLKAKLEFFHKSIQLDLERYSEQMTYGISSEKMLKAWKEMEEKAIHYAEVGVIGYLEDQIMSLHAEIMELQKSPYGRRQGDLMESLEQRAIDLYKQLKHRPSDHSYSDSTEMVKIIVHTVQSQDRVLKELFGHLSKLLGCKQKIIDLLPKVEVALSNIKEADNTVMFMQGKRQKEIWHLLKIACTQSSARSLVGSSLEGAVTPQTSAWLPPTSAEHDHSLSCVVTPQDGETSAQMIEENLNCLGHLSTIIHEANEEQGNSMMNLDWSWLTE
As to the kind of experiment: Inhibition of TNF-alpha-induced IKK-alpha phosphorylation in human MDA-MB-231 cells at Ser176 residue at 5 and 10 uM pretreated for 30 mins followed by addition of TNF-alpha for 1 hr by immunoblot analysis. The format is cell-based. On the technique in general: A western blot detects proteins with antibodies after separation by electrophoresis.

For experiment [6], the target named is T3, Inhibitor of nuclear factor kappa-B kinase subunit beta (Homo sapiens) (UniProt O14920).
T3 sequence (whole entry): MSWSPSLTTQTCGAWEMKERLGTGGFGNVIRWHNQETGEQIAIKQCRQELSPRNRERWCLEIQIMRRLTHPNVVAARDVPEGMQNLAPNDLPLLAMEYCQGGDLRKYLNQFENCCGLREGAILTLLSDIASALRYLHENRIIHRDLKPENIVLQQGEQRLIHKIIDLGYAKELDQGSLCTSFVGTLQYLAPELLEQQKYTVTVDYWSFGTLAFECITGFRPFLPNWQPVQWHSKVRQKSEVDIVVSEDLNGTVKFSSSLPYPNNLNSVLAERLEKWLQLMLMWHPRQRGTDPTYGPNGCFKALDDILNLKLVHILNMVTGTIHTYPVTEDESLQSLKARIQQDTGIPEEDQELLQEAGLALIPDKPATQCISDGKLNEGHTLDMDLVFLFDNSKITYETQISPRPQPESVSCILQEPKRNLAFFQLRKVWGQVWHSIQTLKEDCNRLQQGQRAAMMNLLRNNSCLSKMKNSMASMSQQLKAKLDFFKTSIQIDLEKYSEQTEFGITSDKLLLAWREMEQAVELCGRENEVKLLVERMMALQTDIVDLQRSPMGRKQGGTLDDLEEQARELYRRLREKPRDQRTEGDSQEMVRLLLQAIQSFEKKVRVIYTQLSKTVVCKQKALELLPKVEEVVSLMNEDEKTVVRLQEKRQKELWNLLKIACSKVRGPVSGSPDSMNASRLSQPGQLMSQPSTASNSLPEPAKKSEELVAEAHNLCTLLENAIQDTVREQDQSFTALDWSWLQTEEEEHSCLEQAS
The experiment is described as follows: Inhibition of TNF-alpha-induced IKK-beta phosphorylation at Ser180 residue in human MDA-MB-231 cells at 5 and 10 uM pretreated for 30 mins followed by addition of TNF-alpha for 1 hr by immunoblot analysis. The format is cell-based.

The target in experiment [7] is T1, Inhibitor of NF-kappa-B kinase (IKK) (Homo sapiens). As to the kind of experiment: Inhibition of IKK in human MDA-MB-231 cells assessed as inhibition of TNF-alpha-induced IkappaB phosphorylation at Ser-32 residue at 5 and 10 uM pretreated for 30 mins followed by addition of TNF-alpha for 1 hr by immunoblot analysis. The class given is cell-based.
Experiment [8] has the same target. As to the kind of experiment: Inhibition of IKK in human MDA-MB-231 cells assessed as inhibition of TNF-alpha-induced p65/RelA phosphorylation at Ser-536 residue at 5 and 10 uM pretreated for 30 mins followed by addition of TNF-alpha for 1 hr by immunoblot analysis. The class given is cell-based.
Experiment [9] has the same target. The experiment is described as follows: Inhibition of IKK in human MDA-MB-231 cells assessed as inhibition of TNF-alpha-induced p65/RelA phosphorylation at Ser-536 residue in nucleus at 10 uM pretreated for 30 mins followed by addition of TNF-alpha for 1 hr by immunofluorescence analysis. The class given is cell-based.
The target is the same in experiment [10]. As to the kind of experiment: Inhibition of IKK in human MDA-MB-231 cells assessed as inhibition of TNF-alpha-induced NF-kappaB transcriptional activity pretreated with compound for 30 mins followed by addition of TNF-alpha for 8 hrs by luciferase reporter gene assay. The class given is cell-based.
Experiment [11] deals with MDA-MB-231. As to the kind of experiment: Inhibition of TNF-alpha-induced cell migration in human MDA-MB-231 cells at 10 uM pretreated for 30 mins followed by addition of TNF-alpha measured after 6 hrs by scratch wound healing assay. The format is functional, cell-based.
Experiment [12] deals with MDA-MB-231. As to the kind of experiment: Inhibition of TNF-alpha-induced cell motility in human MDA-MB-231 cells assessed as lamellipodium projection at 10 uM pretreated for 30 mins followed by addition of TNF-alpha measured after 10 mins by rhodamine- phalloidin staining based assay. The format is functional.
For experiment [13], the system named is MDA-MB-231. The experiment is described as follows: Inhibition of TNF-alpha-induced cell invasion in human MDA-MB-231 cells at 10 uM pretreated for 30 mins followed by addition of TNF-alpha measured after 24 hrs by matrigel invasion assay. The class given is functional, cell-based.
Experiment [14] deals with MDA-MB-231. The experiment is described as follows: Inhibition of TNF-alpha-induced cell invasion in human MDA-MB-231 cells assessed as decrease in spindle-like protrusions at 10 uM pretreated for 30 mins followed by addition of TNF-alpha by microscopic analysis. The format is functional, cell-based.

As for `COc1cc(/C=C/C(=O)c2cc(OC)ccc2O)cc(OC)c1`, the inhibition result in experiment [1], in [2], in experiment [4] and in experiment [10] was “Dose-dependent effect” each time. In experiment [3], the fold change (FC) is 4.1. Also, the inhibition result in experiment [5], in experiment [6], in experiment [7], in [8], in experiment [9] and in experiment [11] was “Active” in each case. In addition, the inhibition result in [12], in experiment [13] and in experiment [14] was “Active” throughout.
